Experiments:
Assay in all cases: KINOMEscan competition binding
Settings in all cases: compound 1.0 µM
[1] = test system: ABL1 (human), P00519 [E255K]
ALK (human) = ALK (human) (UniProt Q9UM73)
AURKA (human) = AURKA (human) (UniProt O14965)
BLK (human) = BLK (human) (UniProt P51451)
BMPR1B (human) = BMPR1B (human) (UniProt O00238)
CASK (human) = CASK (human) (UniProt O14936)
CDC2L2 (human) = CDC2L2 (human) (UniProt Q9UQ88)
CDK16 (human) = CDK16 (human) (UniProt Q00536)
CHEK1 (human) = CHEK1 (human) (UniProt O14757)
CIT (human) = CIT (human) (UniProt O14578)
DYRK2 (human) = DYRK2 (human) (UniProt Q92630)
FGFR3 (human) = FGFR3 (human) (UniProt P22607)
GRK1 (human) = GRK1 (human) (UniProt Q15835)
GRK4 (human) = GRK4 (human) (UniProt P32298)
GSK3A (human) = GSK3A (human) (UniProt P49840)
GSK3B (human) = GSK3B (human) (UniProt P49841)
[2] = target: JAK1 JH2 pseudokinase (human) (UniProt P23458)
KDR (human) = KDR (human) (UniProt P35968)
KIT (human) = KIT (human) (UniProt P10721)
LRRK2 (human) = LRRK2 (human) (UniProt Q5S007)
LYN (human) = LYN (human) (UniProt P07948)
MAP3K7 (human) = MAP3K7 (human) (UniProt O43318)
MAPK6 (human) = MAPK6 (human) (UniProt Q16659)
MKNK2 (human) = MKNK2 (human) (UniProt Q9HBH9)
MYLK (human) = MYLK (human) (UniProt Q15746)
MYLK3 (human) = MYLK3 (human) (UniProt Q32MK0)
MYO3A (human) = MYO3A (human) (UniProt Q8NEV4)
NEK1 (human) = NEK1 (human) (UniProt Q96PY6)
NEK7 (human) = NEK7 (human) (UniProt Q8TDX7)
NIM1 (human) = NIM1 (human) (UniProt Q8IY84)
PAK7 (human) = PAK7 (human) (UniProt Q9P286)
PHKG2 (human) = PHKG2 (human) (UniProt P15735)
PRKACB (human) = PRKACB (human) (UniProt P22694)
RET (human) = RET (human) (UniProt P07949)
ROCK1 (human) = ROCK1 (human) (UniProt Q13464)
RPS6KA1 KD1 (human) = RPS6KA1 KD1 (human) (UniProt Q15418)
RPS6KA3 KD1 (human) = RPS6KA3 KD1 (human) (UniProt P51812)
RPS6KA6 KD1 (human) = RPS6KA6 KD1 (human) (UniProt Q9UK32)
SBK1 (human) = SBK1 (human) (UniProt Q52WX2)
SRC (human) = SRC (human) (UniProt P12931)
SRPK1 (human) = SRPK1 (human) (UniProt Q96SB4)
TEK (human) = TEK (human) (UniProt Q02763)
TXK (human) = TXK (human) (UniProt P42681)
TXK (human), sequence (P42681 whole entry, looked up): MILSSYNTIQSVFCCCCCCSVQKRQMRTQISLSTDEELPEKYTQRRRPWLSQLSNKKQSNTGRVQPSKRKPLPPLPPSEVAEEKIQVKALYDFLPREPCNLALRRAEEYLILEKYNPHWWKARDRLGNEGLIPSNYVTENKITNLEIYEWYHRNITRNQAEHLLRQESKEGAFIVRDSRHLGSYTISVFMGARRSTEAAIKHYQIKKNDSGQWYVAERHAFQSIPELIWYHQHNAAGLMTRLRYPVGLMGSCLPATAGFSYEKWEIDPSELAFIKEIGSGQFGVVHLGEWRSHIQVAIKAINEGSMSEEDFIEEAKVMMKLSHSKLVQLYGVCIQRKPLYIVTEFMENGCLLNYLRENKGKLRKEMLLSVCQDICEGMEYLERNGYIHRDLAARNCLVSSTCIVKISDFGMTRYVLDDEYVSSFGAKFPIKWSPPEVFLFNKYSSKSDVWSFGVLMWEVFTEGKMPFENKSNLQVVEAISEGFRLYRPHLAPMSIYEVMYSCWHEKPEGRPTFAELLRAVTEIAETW

LRRK2 (human), sequence (Q5S007 whole entry, looked up): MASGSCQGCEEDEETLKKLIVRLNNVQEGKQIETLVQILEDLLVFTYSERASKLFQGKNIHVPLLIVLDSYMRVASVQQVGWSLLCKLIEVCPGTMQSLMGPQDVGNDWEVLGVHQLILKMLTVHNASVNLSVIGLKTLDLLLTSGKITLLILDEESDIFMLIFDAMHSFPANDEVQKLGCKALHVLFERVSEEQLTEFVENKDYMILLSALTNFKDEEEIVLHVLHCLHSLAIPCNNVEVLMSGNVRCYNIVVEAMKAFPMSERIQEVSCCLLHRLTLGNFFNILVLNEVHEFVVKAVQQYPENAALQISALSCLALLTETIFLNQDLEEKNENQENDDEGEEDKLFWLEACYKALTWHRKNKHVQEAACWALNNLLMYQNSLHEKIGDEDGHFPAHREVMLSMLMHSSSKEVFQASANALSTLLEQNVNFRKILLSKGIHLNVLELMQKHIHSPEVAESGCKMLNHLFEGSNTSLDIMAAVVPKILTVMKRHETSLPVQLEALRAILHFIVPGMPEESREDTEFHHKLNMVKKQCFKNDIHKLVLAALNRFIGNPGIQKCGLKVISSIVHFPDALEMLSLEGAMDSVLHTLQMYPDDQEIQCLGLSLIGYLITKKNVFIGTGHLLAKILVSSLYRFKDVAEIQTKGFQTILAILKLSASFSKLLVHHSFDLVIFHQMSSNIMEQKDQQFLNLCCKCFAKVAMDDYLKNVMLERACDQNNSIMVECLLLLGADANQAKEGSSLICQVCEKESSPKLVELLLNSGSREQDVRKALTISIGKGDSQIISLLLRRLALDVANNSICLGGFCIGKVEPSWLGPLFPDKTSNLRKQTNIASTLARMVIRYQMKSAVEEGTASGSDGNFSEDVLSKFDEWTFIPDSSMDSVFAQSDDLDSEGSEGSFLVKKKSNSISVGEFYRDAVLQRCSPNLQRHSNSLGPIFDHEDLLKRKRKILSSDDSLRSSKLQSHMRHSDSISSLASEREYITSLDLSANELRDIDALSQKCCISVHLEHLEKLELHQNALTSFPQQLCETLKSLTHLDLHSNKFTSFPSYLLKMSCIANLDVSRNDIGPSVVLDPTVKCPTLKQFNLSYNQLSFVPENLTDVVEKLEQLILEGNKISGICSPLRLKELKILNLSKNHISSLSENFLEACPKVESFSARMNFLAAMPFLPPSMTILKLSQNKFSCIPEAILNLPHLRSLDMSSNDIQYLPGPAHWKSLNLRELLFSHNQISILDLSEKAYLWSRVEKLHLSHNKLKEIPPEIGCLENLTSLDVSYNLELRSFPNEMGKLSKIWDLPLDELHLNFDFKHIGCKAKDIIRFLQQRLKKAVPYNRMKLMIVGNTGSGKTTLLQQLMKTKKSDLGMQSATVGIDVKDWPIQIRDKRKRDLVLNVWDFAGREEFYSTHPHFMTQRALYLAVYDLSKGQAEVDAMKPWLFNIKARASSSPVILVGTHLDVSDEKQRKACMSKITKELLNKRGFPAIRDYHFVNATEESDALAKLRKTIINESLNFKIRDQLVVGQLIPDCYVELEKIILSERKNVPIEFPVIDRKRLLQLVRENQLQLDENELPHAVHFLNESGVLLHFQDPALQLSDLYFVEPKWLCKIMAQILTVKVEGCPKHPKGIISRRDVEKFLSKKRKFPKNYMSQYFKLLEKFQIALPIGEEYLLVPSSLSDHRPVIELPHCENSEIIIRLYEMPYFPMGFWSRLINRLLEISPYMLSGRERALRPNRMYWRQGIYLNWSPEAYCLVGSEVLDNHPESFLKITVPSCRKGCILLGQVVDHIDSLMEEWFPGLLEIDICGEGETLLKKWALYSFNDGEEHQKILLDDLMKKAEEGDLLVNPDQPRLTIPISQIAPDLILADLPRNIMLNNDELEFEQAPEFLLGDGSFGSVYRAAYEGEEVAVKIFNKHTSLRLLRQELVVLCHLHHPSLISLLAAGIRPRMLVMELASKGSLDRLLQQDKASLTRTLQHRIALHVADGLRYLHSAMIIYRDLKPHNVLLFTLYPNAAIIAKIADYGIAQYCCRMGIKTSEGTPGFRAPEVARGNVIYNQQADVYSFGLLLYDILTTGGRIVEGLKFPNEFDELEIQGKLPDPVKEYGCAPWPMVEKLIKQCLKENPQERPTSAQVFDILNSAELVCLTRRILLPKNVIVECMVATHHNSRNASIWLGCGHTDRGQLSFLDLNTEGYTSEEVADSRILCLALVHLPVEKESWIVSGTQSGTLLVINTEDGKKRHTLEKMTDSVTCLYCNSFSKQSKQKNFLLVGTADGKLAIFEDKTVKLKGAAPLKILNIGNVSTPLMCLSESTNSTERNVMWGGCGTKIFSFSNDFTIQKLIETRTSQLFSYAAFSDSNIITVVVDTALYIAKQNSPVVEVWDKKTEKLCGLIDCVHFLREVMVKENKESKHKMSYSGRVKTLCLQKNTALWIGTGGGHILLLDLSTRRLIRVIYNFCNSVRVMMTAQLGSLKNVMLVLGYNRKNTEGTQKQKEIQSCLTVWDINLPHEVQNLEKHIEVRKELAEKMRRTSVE
NEK7 (human), sequence (Q8TDX7 whole entry, looked up): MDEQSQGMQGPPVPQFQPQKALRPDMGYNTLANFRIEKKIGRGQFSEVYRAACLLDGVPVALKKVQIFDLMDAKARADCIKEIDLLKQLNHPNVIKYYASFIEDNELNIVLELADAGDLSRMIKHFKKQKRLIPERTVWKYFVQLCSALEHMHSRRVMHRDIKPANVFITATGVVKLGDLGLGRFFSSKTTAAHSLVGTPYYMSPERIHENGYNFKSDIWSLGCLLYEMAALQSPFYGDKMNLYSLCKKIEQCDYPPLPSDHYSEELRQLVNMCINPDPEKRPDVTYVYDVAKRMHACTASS
SRC (human), sequence (P12931 whole entry, looked up): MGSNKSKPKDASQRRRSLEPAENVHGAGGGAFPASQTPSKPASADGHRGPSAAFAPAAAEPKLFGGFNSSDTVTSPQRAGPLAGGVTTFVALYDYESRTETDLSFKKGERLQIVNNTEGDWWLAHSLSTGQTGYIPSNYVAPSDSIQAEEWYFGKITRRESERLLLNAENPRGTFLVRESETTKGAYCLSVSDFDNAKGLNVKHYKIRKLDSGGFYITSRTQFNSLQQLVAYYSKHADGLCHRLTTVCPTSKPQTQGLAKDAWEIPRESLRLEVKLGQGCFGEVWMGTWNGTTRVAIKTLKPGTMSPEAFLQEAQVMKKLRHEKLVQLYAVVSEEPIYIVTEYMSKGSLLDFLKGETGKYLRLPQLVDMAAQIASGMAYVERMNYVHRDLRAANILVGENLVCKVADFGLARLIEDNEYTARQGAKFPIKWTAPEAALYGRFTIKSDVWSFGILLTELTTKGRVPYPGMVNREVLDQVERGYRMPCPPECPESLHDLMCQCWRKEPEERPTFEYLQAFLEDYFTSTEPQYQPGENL
RET (human), sequence (P07949 whole entry, looked up): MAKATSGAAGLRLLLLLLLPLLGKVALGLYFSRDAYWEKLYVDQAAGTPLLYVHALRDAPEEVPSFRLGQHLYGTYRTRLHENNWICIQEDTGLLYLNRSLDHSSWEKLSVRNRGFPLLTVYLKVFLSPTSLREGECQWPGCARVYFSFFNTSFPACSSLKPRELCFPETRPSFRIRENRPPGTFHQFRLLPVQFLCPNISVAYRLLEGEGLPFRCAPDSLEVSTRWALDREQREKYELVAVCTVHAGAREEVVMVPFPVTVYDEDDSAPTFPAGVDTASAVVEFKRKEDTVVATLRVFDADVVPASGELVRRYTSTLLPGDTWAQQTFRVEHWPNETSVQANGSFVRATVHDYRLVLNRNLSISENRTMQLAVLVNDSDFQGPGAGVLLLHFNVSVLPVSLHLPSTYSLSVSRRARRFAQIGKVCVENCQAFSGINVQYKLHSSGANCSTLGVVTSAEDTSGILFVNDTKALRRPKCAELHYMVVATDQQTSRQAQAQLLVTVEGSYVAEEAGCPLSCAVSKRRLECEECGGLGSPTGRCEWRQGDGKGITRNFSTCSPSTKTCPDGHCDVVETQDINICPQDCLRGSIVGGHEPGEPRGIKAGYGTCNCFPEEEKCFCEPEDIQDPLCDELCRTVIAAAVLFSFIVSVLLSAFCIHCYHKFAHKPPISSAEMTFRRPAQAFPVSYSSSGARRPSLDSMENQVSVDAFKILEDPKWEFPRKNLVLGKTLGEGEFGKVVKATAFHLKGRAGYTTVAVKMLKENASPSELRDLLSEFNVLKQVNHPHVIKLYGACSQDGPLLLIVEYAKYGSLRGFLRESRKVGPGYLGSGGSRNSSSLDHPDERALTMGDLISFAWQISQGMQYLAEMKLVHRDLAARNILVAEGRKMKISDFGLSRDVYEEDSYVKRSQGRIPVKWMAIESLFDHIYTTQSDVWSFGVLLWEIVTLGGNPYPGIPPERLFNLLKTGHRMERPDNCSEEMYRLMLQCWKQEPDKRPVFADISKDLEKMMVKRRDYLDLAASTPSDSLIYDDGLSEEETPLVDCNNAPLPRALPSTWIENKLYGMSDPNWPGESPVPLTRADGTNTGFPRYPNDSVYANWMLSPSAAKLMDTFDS

SMILES: COCCNCCCn1c(C(=O)CF)c(-c2ccc(C)cc2)c2c(N)ncnc21
- kinase still bound, per cent of control [1]: 90%
- kinase still bound, per cent of control (ALK (human)): 71%
- kinase still bound, per cent of control (AURKA (human)): 92%
- kinase still bound, per cent of control (BLK (human)): 100%
- kinase still bound, per cent of control (BMPR1B (human)): 85%
- kinase still bound, per cent of control (CASK (human)): 62%
- kinase still bound, per cent of control (CDC2L2 (human)): 100%
- kinase still bound, per cent of control (CDK16 (human)): 100%
- kinase still bound, per cent of control (CHEK1 (human)): 100%
- kinase still bound, per cent of control (CIT (human)): 93%
- kinase still bound, per cent of control (DYRK2 (human)): 89%
- kinase still bound, per cent of control (FGFR3 (human)): 92%
- kinase still bound, per cent of control (GRK1 (human)): 100%
- kinase still bound, per cent of control (GRK4 (human)): 85%
- kinase still bound, per cent of control (GSK3A (human)): 100%
- kinase still bound, per cent of control (GSK3B (human)): 100%
- kinase still bound, per cent of control [2]: 100%
- kinase still bound, per cent of control (KDR (human)): 85%
- kinase still bound, per cent of control (KIT (human)): 77%
- kinase still bound, per cent of control (LRRK2 (human)): 100%
- kinase still bound, per cent of control (LYN (human)): 97%
- kinase still bound, per cent of control (MAP3K7 (human)): 100%
- kinase still bound, per cent of control (MAPK6 (human)): 100%
- kinase still bound, per cent of control (MKNK2 (human)): 92%
- kinase still bound, per cent of control (MYLK (human)): 100%
- kinase still bound, per cent of control (MYLK3 (human)): 96%
- kinase still bound, per cent of control (MYO3A (human)): 100%
- kinase still bound, per cent of control (NEK1 (human)): 100%
- kinase still bound, per cent of control (NEK7 (human)): 100%
- kinase still bound, per cent of control (NIM1 (human)): 100%
- kinase still bound, per cent of control (PAK7 (human)): 82%
- kinase still bound, per cent of control (PHKG2 (human)): 100%
- kinase still bound, per cent of control (PRKACB (human)): 96%
- kinase still bound, per cent of control (RET (human)): 88%
- kinase still bound, per cent of control (ROCK1 (human)): 98%
- kinase still bound, per cent of control (RPS6KA1 KD1 (human)): 78%
- kinase still bound, per cent of control (RPS6KA3 KD1 (human)): 97%
- kinase still bound, per cent of control (RPS6KA6 KD1 (human)): 90%
- kinase still bound, per cent of control (SBK1 (human)): 98%
- kinase still bound, per cent of control (SRC (human)): 98%
- kinase still bound, per cent of control (SRPK1 (human)): 100%
- kinase still bound, per cent of control (TEK (human)): 100%
- kinase still bound, per cent of control (TXK (human)): 100%

From the kinase profiling compilation of Christmann-Franck et al. (2016)
